# Measurements: ChEMBL document CHEMBL5260810, “Inhibition of bromodomain-containing protein 9 for the prevention of epigenetically-defined drug resistance” (Bioorg Med Chem Lett, 2017)
# The source made the active and inactive calls. No cut-off for these calls is given here.
# Assays:
# [1] = Cytotoxicity against human MOLP8 cells measured after 8 days; format: functional, cell-based; settings: MOLP-8, 192 h
# COLO-680N = test: Cytotoxicity against human COLO-680N cells measured after 8 days; format: functional, cell-based; settings: 192 h
# MIA PaCa-2 = test: Antiproliferative activity against human MIA PaCa-2 cells assessed as reduction in colony formation up to 20 uM supplemented with fresh medium containing compound every 3 days for 9 days by MTT staining based clonogenic assay; format: functional, cell-based; settings: time 9.0 day
# [2] = Cytotoxicity against human OVSAHO cells measured after 8 days; format: functional, cell-based; settings: 192 h
# NOMO-1 = test: Cytotoxicity against human NOMO-1 cells measured after 8 days; format: functional, cell-based; settings: NOMO-1, 192 h
# [3] = Cytotoxicity against human HCC2885 cells measured after 8 days; format: functional, cell-based; settings: HCC2885, 192 h
# [4] = Cytotoxicity against human COV434 cells measured after 8 days; format: functional, cell-based; settings: COV434, 192 h
# U2OS = test: Cytotoxicity against human U2OS cells measured after 8 days; format: functional, cell-based; settings: 192 h
# REH = test: Cytotoxicity against human REH cells measured after 8 days; format: functional, cell-based; settings: 192 h
# BXPC-3 = test: Antiproliferative activity against human BxPC-3 cells assessed as reduction in colony formation up to 20 uM supplemented with fresh medium containing compound every 3 days for 9 days by MTT staining based clonogenic assay; format: functional, cell-based; settings: time 9.0 day
# NB69 = test: Cytotoxicity against human NB69 cells measured after 8 days; format: functional, cell-based; settings: NB69, 192 h
# NCI-H1299 = test: Antiproliferative activity against human NCI-H1299 cells assessed as reduction in colony formation up to 20 uM supplemented with fresh medium containing compound every 3 days for 9 days by MTT staining based clonogenic assay; format: functional, cell-based; settings: time 9.0 day
# [5] = Cytotoxicity against human RKN cells measured after 8 days; format: functional, cell-based; settings: 192 h
# PEO1 = test: Cytotoxicity against human PEO1 cells measured after 3 days; format: functional, cell-based; settings: PEO1, 72 h
# [6] = Cytotoxicity against human SW527 cells measured after 3 days; format: functional, cell-based; settings: SW527, 72 h
# [7] = Cytotoxicity against human KMS-28PE cells measured after 3 days; format: functional, cell-based; settings: 72 h
# HCC1395 = test: Cytotoxicity against human HCC1395 cells measured after 8 days; format: functional, cell-based; settings: HCC1395, 192 h
# [8] = Cytotoxicity against human OVTOKO cells measured after 3 days; format: functional, cell-based; settings: 72 h
# L-363 = test: Cytotoxicity against human L-363 cells measured after 3 days; format: functional, cell-based; settings: L-363, 72 h
# EB-3 = test: Cytotoxicity against human EB-3 cells measured after 3 days; format: functional, cell-based; settings: EB-3, 72 h
# HLE = test: Cytotoxicity against human HLE cells measured after 3 days; format: functional, cell-based; settings: 72 h
# LP-1 = test: Cytotoxicity against human LP-1 cells measured after 3 days; format: functional, cell-based; settings: LP-1, 72 h
# MFM-223 = test: Cytotoxicity against human MFM-223 cells measured after 3 days; format: functional, cell-based; settings: MFM-223, 72 h
# U-266 = test: Cytotoxicity against human U266B1 cells measured after 3 days; format: functional, cell-based; settings: U-266, 72 h
# IGROV-1 = test: Cytotoxicity against human IGROV-1 cells measured after 3 days; format: functional, cell-based; settings: IGROV-1, 72 h
# [9] = Cytotoxicity against human OVCA429 cells measured after 3 days; format: functional, cell-based; settings: OVCA429, 72 h
# OV-90 = test: Cytotoxicity against human OV-90 cells measured after 3 days; format: functional, cell-based; settings: OV-90, 72 h
# SR = test: Cytotoxicity against human SR cells measured after 3 days; format: functional, cell-based; settings: 72 h
# T47D = test: Cytotoxicity against human T47D cells measured after 3 days; format: functional, cell-based; settings: 72 h
# [10] = Cytotoxicity against human MCAS cells measured after 3 days; format: functional, cell-based; settings: 72 h
# PC-9 = test: Cytotoxicity against human PC-9 cells assessed as reduction in drug tolerant population at 2 uM supplemented with fresh medium containing compound every 3 days for 9 days in presence of erlotinib by Beckman Coulter counting method relative to control; format: functional; design: scale not given: the % may be the effect or the level left; settings: time 9 day
# SW1573 = test: Cytotoxicity against human SW1573 cells measured after 3 days; format: functional, cell-based; settings: SW1573, 72 h
# SET-2 = test: Cytotoxicity against human SET2 cells measured after 3 days; format: functional, cell-based; settings: SET-2, 72 h
# MC116 = test: Cytotoxicity against human MC116 cells measured after 3 days; format: functional, cell-based; settings: MC116, 72 h
# [11] = Cytotoxicity against human MOLM16 cells measured after 3 days; format: functional, cell-based, MOLM-16; settings: MOLM16, 72 h
# SU-DHL-1 = test: Cytotoxicity against human SU-DHL-1 cells measured after 3 days; format: functional, cell-based; settings: SU-DHL-1, 72 h
# [12] = Cytotoxicity against human NCE-G 118 cells measured after 3 days; format: functional, cell-based; settings: NCE-G 118, 72 h
# LN-18 = test: Cytotoxicity against human LN-18 cells measured after 3 days; format: functional, cell-based; settings: LN-18, 72 h
# [13] = Cytotoxicity against human EFM-192A cells measured after 8 days; format: functional, cell-based; settings: 192 h
# [14] = target: T1, Bromodomain-containing protein 9 (Homo sapiens) (UniProt Q9H8M2); test: Inhibition of BRD9 in human PC-9 cells assessed as reduction in ALDH1A1 gene expression at 0.5 uM preincubated with erlotinib for 8 days followed by compound addition and measured after 24 hrs by RNA sequencing analysis; format: cell-based
# T1 sequence (whole entry): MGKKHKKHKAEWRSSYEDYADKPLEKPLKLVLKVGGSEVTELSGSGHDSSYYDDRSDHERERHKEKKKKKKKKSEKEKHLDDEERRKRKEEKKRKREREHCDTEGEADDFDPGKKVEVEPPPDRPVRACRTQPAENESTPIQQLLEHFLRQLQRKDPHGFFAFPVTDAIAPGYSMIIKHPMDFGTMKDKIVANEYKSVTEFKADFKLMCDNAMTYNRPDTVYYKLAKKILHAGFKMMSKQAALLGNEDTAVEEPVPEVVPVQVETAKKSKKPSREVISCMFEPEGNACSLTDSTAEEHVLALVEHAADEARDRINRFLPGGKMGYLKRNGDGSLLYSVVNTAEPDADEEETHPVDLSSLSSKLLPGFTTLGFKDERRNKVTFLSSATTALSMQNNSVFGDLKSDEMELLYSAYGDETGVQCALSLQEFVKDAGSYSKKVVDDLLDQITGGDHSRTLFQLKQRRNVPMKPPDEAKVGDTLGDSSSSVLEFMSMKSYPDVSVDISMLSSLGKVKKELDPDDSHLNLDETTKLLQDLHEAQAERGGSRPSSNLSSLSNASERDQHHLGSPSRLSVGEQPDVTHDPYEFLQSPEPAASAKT
# [15] = Cytotoxicity against human Sc-1 cells measured after 3 days; format: functional, cell-based; settings: SC-1, 72 h
# CAL-12T = test: Cytotoxicity against human CAL-12T cells measured after 3 days; format: functional, cell-based; settings: 72 h
# Jurkat = test: Cytotoxicity against human Jurkat cells measured after 3 days; format: functional, cell-based; settings: 72 h
# IMR-32 = test: Cytotoxicity against human IMR-32 cells measured after 3 days; format: functional, cell-based; settings: IMR-32, 72 h
# OCI-LY19 = test: Cytotoxicity against human OCILY19 cells measured after 3 days; format: functional, cell-based; settings: OCI-LY19, 72 h
# [16] = Cytotoxicity against human NCE-G 120 cells measured after 3 days; format: functional, cell-based; settings: NCE-G 120, 72 h
# RPMI-8226 = test: Cytotoxicity against human RPMI-8226 cells measured after 3 days; format: functional, cell-based; settings: RPMI-8226, 72 h
smiles,measurement,setting,value
C/C=C/Cn1cc(-c2ccc(C(C)(C)O)cc2OC)c2cc[nH]c2c1=O,IC50,[1],20 µM
same,IC50,COLO-680N,20 µM
same,Activity,MIA PaCa-2,inactive
same,IC50,[2],20 µM
same,IC50,NOMO-1,20 µM
same,IC50,[3],20 µM
same,IC50,[4],20 µM
same,IC50,U2OS,20 µM
same,IC50,REH,20 µM
same,Activity,BXPC-3,inactive
same,IC50,NB69,20 µM
same,Activity,NCI-H1299,inactive
same,IC50,[5],20 µM
C/C=C/Cn1cc(-c2ccc(C(=O)N3CCOCC3)cc2)c2cc[nH]c2c1=O,IC50,[1],18.3 µM
same,IC50,COLO-680N,20 µM
same,IC50,[2],20 µM
same,IC50,NOMO-1,20 µM
same,IC50,[3],20 µM
same,IC50,[4],20 µM
same,IC50,U2OS,20 µM
same,IC50,NB69,20 µM
same,IC50,[5],20 µM
C/C=C/Cn1cc(-c2cc(OC)c(C(=O)N3CCOCC3)cc2OC)c2cc(C)[nH]c2c1=O,IC50,PEO1,5 µM
same,IC50,[6],5 µM
same,IC50,[7],5 µM
same,IC50,HCC1395,2 µM
same,IC50,[8],5 µM
same,IC50,L-363,5 µM
same,IC50,EB-3,5 µM
same,IC50,HLE,5 µM
same,IC50,LP-1,5 µM
same,IC50,MFM-223,5 µM
same,IC50,U-266,5 µM
same,IC50,IGROV-1,5 µM
same,IC50,[9],5 µM
same,IC50,OV-90,5 µM
same,IC50,SR,5 µM
same,IC50,T47D,5 µM
same,IC50,[10],5 µM
same,Activity,PC-9,>60%
same,IC50,SW1573,5 µM
same,IC50,SET-2,5 µM
same,IC50,MC116,5 µM
same,IC50,[11],5 µM
same,IC50,SU-DHL-1,5 µM
same,IC50,[12],5 µM
same,IC50,LN-18,5 µM
same,IC50,[13],2 µM
same,inhibition,[14],Active
same,IC50,[15],5 µM
same,IC50,CAL-12T,5 µM
same,IC50,Jurkat,5 µM
same,IC50,IMR-32,5 µM
same,IC50,OCI-LY19,5 µM
same,IC50,[16],5 µM
same,IC50,RPMI-8226,5 µM
